Measurements: PubChem BioAssay (NCI)
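Grown in 96-well plates, cells were treated for 48 hours with each compound at five concentrations. Insufficient inhibition: endpoint recorded as highest concentration tested. TGI marks complete inhibition of growth.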

How the values were obtained:
Assay in all cases: NCI tumour cell line growth inhibition, 48 h
HCC-2998 colon = system: HCC-2998 colon
CCRF-CEM leukemia = system: CCRF-CEM leukemia
ACHN renal = system: ACHN renal
CAKI-1 renal = system: CAKI-1 renal
SF-539 CNS = system: SF-539 CNS
IGROV1 ovarian = system: IGROV1 ovarian
MCF7 breast = system: MCF7 breast
SR leukemia = system: SR leukemia
HOP-62 NSCLC = system: HOP-62 NSCLC
KM12 colon = system: KM12 colon
LOX IMVI melanoma = system: LOX IMVI melanoma
MOLT-4 leukemia = system: MOLT-4 leukemia
MDA-MB-435 = system: MDA-MB-435
SF-295 CNS = system: SF-295 CNS
K-562 leukemia = system: K-562 leukemia
BT-549 breast = system: BT-549 breast
SK-MEL-5 melanoma = system: SK-MEL-5 melanoma
OVCAR-4 ovarian = system: OVCAR-4 ovarian
A549 NSCLC = system: A549 NSCLC
SNB-19 CNS = system: SNB-19 CNS
EKVX NSCLC = system: EKVX NSCLC
U251 CNS = system: U251 CNS
NCI-H226 lung = system: NCI-H226 lung
OVCAR-3 ovarian = system: OVCAR-3 ovarian
HCT-116 colon = system: HCT-116 colon
HL-60(TB) leukemia = system: HL-60(TB) leukemia
MDA-N = system: MDA-N
OVCAR-8 ovarian = system: OVCAR-8 ovarian
SK-MEL-2 melanoma = system: SK-MEL-2 melanoma
NCI/ADR-RES ovarian = system: NCI/ADR-RES ovarian
OVCAR-5 ovarian = system: OVCAR-5 ovarian
MALME-3M melanoma = system: MALME-3M melanoma
786-0 renal = system: 786-0 renal
SW-620 colon = system: SW-620 colon
RPMI-8226 leukemia = system: RPMI-8226 leukemia
M14 melanoma = system: M14 melanoma
HT29 colon = system: HT29 colon
UACC-62 melanoma = system: UACC-62 melanoma
SN12C renal = system: SN12C renal
MDA-MB-231 breast = system: MDA-MB-231 breast
COLO 205 colon = system: COLO 205 colon
A498 renal = system: A498 renal
UO-31 renal = system: UO-31 renal
NCI-H23 lung = system: NCI-H23 lung
PC-3 prostate = system: PC-3 prostate
HCT-15 colon = system: HCT-15 colon
DU-145 prostate = system: DU-145 prostate
SK-MEL-28 melanoma = system: SK-MEL-28 melanoma
NCI-H522 lung = system: NCI-H522 lung
SF-268 CNS = system: SF-268 CNS
HOP-92 NSCLC = system: HOP-92 NSCLC
NCI-H460 lung = system: NCI-H460 lung
SK-OV-3 ovarian = system: SK-OV-3 ovarian
SNB-75 CNS = system: SNB-75 CNS
T-47D breast = system: T-47D breast
HS 578T breast = system: HS 578T breast
TK-10 renal = system: TK-10 renal
UACC-257 melanoma = system: UACC-257 melanoma

Measured: TGI

COc1cc2c(c(O)c1OC)C(=O)[C@@H]1CCC(=O)N1C2
> 100 µM: all assays above
